Laboratory results reported in patent publication US20180071284A1, “PREVENTING OR TREATING VIRAL INFECTION BY INHIBITION OF THE HISTONE METHYLTRANSFERASE EZH1 OR EZH2” (The United States of America, as represented by the …, priority 2015, published 2018).
“Also recorded” adds a separate entry of the source.

Legend:
HSV-1 [1] = test: HSV-1 cellular and nuclear entry (viral DNA in total and nuclear fractions of HFF cells); type: cell-based, herpes simplex virus 1 (HSV-1); settings: compound 1 35 μM, compound 4 30 μM, 5-hrs pretreatment, HSV-1 2.0 PFU per cell 1.5-hrs
Experimental: HFF cells were treated with the EZH1/2 catalytic inhibitor compound 1 (35 μM), compound 4 (30 μM), or DMSO (vehicle) for 5-hrs. The HFF cells were then infected with HSV-1 (2.0 PFU per cell) for 1.5-hrs in the presence of the inhibitors or DMSO (vehicle). The levels of HSV viral DNA isolated from total and nuclear cellular fractions are expressed as ratios relative to DMSO (vehicle).

HSV-1 [2] = test: Mouse trigeminal ganglia explant reactivation model, viral yield titrated on Vero cells; type: cell-based, herpes simplex virus 1 (HSV-1); settings: explant 48-hrs; compound 1 35 μM, compound 3 30 μM, compound 4 30 μM
Experimental: Trigeminal ganglia from HSV-1 latently infected mice were bisected. Half were explanted in media with control DMSO (vehicle), and the other half were explanted in media with ACV (100 μM), ML324 (50 μM), compound 1 (35 μM), compound 3 (30 μM), or compound 4 (30 μM) for 48-hrs to induce viral reactivation. Viral yields were determined by titrating on Vero cells. Each point represents the titer of one explanted trigeminal ganglia.

HSV-1 [3] = test: UL29+ single neurons and neuron clusters in explanted trigeminal ganglia; type: cell-based, herpes simplex virus 1 (HSV-1); settings: explant 48-hrs; compound 1 35 μM, compound 4 30 μM, ACV 100 μM, ML324 50 μM
Text: (§1) Trigeminal ganglia were fixed in paraformaldehyde and tissue sections were contained with anti-UL29 and DAPI. The HSV E gene UL29 (DNA single strand binding replication protein) was used a marker for viral reactivation. Tissue sections were scored for UL29+ cell clusters (clusters indicate viral spread from the primary neuron to surrounding cells) and for individual neurons representing the primary reactivation event (single) (FIGS. 18 and 19).
as §1, with “costained” for “contained”, “(FIG. 25).” for “(FIGS. 18 and 19).”

HSV-1 [4] = test: Spread of HSV infection in HFF cells (UL29 staining); type: cell-based, herpes simplex virus 1 (HSV-1); settings: HSV-1 MOI 0.01 for 8.5-hrs, then treated for 12.5-hrs (30 μM)
Experimental: HFF cells were mock or infected with HSV-1 (MOI 0.01) for 8.5-hrs to allow one round of the viral replication program. The HFF cells were then treated with EZH1/2 inhibitor (compound 1 or compound 4 at 30 μM), viral DNA polymerase inhibitor (ACV at 100 μM), or JMJD3 inhibitor (ML324 at 50 μM) for an additional 12.5-hrs. Cells were paraformaldehyde fixed, permeabilized, and stained for the viral E gene UL29 and actin. The viral E protein UL29 was used as a marker for the spread of viral infection.
HFF cells were mock or infected with HSV-1 (MOI 0.01) for 8.5-hrs to allow one round of the viral replication program. HFF cells were then treated with EZH1/2 (compound 1, compound 4), viral DNA polymerase (ACV), or JMJD3 (ML324) inhibitors for additional 12.5-hrs. Cells were paraformaldehyde fixed, permeabilized, and stained for the viral E gene UL29 and actin (Phalloidin). The viral E protein UL29 was used as a marker for the spread of viral infection.

HFF cells = test: Microarray analysis of HFF cells; type: cell-based, human; settings: 30 μM, 4-hrs
Text: -[…] (2013), incorporated herein by reference). In normal fibroblast cells (as opposed to established cell lines or transformed cells lines), 41 genes are co-regulated by IFN (16%) and compound 4 treatment alone.

IFN-α, TNF-α, IL-8 mRNAs = test: Cellular innate interferon signaling mRNAs in mock or HSV-1 infected HFF cells; type: cell-based, human; settings: 30 μM, 5-hrs
Experimental: HFF cells were treated with EZH1/2 catalytic inhibitor compound 4 (30 μM) or DMSO for 5-hrs. HFF cells were then mock or infected with HSV-1 (2.0 PFU per cell) for 1.5-hrs in the presence of inhibitor or DMSO. The levels of HSV viral IE (ICP4 and ICP27), control (SP1), and cellular innate interferon signaling (IFN-α, TNF-α, IL-8) mRNAs are expressed as absolute levels (absolute copies).

[5] = normal fibroblast cells data set

CC[C@H](C)n1cc(C)c2c(C(=O)NCc3c(C)cc(C)[nH]c3=O)cc(-c3ccc(N4CCNCC4)nc3)cc21 [compound 4, GSK126]
HSV-1 viral entry (total and nuclear) (HSV-1 [1]): no impact
HSV reactivation from latency (viral yield per explanted trigeminal ganglia) (HSV-1 [2]): block HSV reactivation from latency
primary reactivation (UL29+ single neurons) (HSV-1 [3]): reduced
secondary spread of HSV (UL29+ neuron clusters) (HSV-1 [3]): reduced
spread of HSV infection to adjacent cells (UL29 marker) (HSV-1 [4]): block the spread of HSV to adjacent cells; also recorded: block the spread of HSV infection
genes induced >2 fold that are co-regulated by IFN (Interferome) (HFF cells): 212 genes
genes induced greater than 2 fold relative to vehicle (microarray) (HFF cells): 252 genes
pro-inflammatory pathways induced (Ingenuity Pathway Analysis) (HFF cells): IL6, IL17, TLR, HMGB1, and JAK/STAT signaling pathways
share of genes induced >2 fold that are co-regulated by IFN (Interferome) (HFF cells): 84%
genes co-regulated by IFN in normal fibroblast cells (HFF cells; [5]): 41 genes
share of genes co-regulated by IFN in normal fibroblast cells (HFF cells; [5]): 16%
expression of innate antiviral signaling molecules IFN-α, TNF-α, and IL-8 (IFN-α, TNF-α, IL-8 mRNAs): induces the expression
